Test results published in patent US11634701B2, “Metabolic pathways with increased carbon yield” (TOTAL RAFFINAGE CHIMIE, priority 2018, dated 2023).
Read-outs that look alike come from different tables or passages of the source.

Assays:
[1] = system: C. acetobutylicum Tal (transaldolase); conditions: measured experimentally or estimated from literature, cited from earlier work
[2] = system: C. acetobutylicum Tkt′ (transketolase, second reaction); conditions: measured experimentally or estimated from literature, cited from earlier work
[3] = system: C. acetobutylicum Tpi (triose phosphate isomerase); conditions: measured experimentally or estimated from literature, cited from earlier work
[4] = system: C. acetobutylicum Fba (fructose-1,6-bisphosphate aldolase); conditions: measured experimentally or estimated from literature, cited from earlier work
[5] = system: C. acetobutylicum Fbp (fructose-1,6-biphosphatase); assay: Kinetic parameters of C. acetobutylicum NOG enzymes (Fbp); assay type: biochemical; conditions: measured experimentally or estimated from literature
Procedure: (§1) The kinetic parameters of C. acetobutylicum enzymes involved in the NOG pathway were measured experimentally or estimated from literature (Table 1) and compiled in a COPASI toolbox for kinetic simulations.

[6] = system: C. acetobutylicum Fba (fructose-1,6-bisphosphate aldolase); assay: Kinetic parameters of C. acetobutylicum NOG enzymes (Fba); assay type: biochemical; conditions: measured experimentally or estimated from literature; read-out: Kms
Procedure: as §1

[7] = system: C. acetobutylicum Tkt (transketolase); conditions: measured experimentally or estimated from literature, cited from earlier work
[8] = system: C. acetobutylicum Rpi (ribose-5-phosphate isomerase); conditions: measured experimentally or estimated from literature, cited from earlier work
[9] = system: C. acetobutylicum Rpe (ribulose-3-phosphate epimerase); conditions: measured experimentally or estimated from literature, cited from earlier work
[10] = molecular target: T1, C. acetobutylicum Xpk (xylulose-5-phosphate phosphoketolase) (Clostridium acetobutylicum, UniProt Q97JE3); assay: Kinetic parameters of C. acetobutylicum NOG enzymes (Xpk); assay type: biochemical; conditions: measured experimentally or estimated from literature
T1 sequence (Q97JE3 1-796): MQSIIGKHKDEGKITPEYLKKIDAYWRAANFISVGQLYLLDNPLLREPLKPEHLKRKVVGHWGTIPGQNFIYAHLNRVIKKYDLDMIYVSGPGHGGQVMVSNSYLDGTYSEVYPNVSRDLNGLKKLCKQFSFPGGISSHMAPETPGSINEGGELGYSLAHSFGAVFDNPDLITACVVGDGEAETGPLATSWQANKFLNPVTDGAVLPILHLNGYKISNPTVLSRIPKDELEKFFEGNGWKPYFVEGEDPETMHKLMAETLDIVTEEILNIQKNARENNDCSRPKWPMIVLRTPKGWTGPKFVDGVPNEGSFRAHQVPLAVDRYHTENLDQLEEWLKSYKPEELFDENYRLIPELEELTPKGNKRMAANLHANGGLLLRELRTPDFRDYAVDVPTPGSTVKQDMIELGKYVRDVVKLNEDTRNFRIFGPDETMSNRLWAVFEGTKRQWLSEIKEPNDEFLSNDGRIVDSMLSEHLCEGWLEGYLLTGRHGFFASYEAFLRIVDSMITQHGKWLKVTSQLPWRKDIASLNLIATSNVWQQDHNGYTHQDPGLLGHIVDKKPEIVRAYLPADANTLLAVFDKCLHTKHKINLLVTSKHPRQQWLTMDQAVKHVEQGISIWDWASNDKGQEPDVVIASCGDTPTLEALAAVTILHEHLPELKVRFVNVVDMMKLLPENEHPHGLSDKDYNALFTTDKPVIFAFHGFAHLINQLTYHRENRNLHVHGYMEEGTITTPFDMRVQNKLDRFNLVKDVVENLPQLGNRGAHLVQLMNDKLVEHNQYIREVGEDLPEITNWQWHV
Procedure: as §1

What does the source list for `O=P(O)(O)OC[C@H]1OC(O)(CO)[C@@H](O)[C@@H]1O` (stereo partly shown) [fructose-6-phosphate]?
Km ([1]; read-out: Kmp): 1440 µM; Km ([2]; read-out: Kmp): 1100 µM

What does the source list for `O=C(CO)COP(=O)(O)O` [dihydroxyacetone phosphate]?
Km ([3]; read-out: Kms): 6450 µM; Km ([4]; read-out: Kmp): 2000 µM

Which Km ([1]; read-out: Kma) does the source give for `O=C[C@H](O)COP(=O)(O)O` [glyceraldehyde-3-phosphate] here?
The Km was 272 µM.

What about the Km ([2]; read-out: Kmq) of the same molecule?
Its Km is 100 µM.

And the Km ([3]; read-out: Kmp)?
The Km was 5250 µM.

What about the Ki ([4]; read-out: Kip) of the same molecule?
Its Ki is 10 mM.

And the Km ([4]; read-out: Kmq)?
The Km was 2400 µM.

For `O=P(O)(O)OC[C@H]1OC(O)(COP(=O)(O)O)[C@@H](O)[C@@H]1O` (stereo partly shown) [fructose-1,6-bisphosphate], which Km [5] is on record?
Its Km is 63 µM.

What about the Km [6] of the same molecule?
The Km was 1140 µM.

With `O=C(CO)[C@@H](O)[C@H](O)[C@H](O)[C@H](O)COP(=O)(O)O` [sedoheptulose-7-phosphate] as the molecule, how does the Km ([1]; read-out: Kmb) read?
Its Km is 786 µM.

And the Km ([7]; read-out: Kmq)?
The Km was 150 µM.

With `O=P(O)(O)OC[C@H]1OC(O)[C@H](O)[C@@H]1O` (stereo partly shown) [ribose-5-phosphate] as the molecule, how does the Km ([7]; read-out: Kmb) read?
The Km was 235 µM.

And the Km ([8]; read-out: Kmp)?
Its Km is 5700 µM.

Which Km ([1]; read-out: Kmq) does the source give for `O=C[C@H](O)[C@H](O)COP(=O)(O)O` [erythrose-4-phosphate] here?
The Km was 362 µM.

What about the Km ([2]; read-out: Kma) of the same molecule?
The Km was 946 µM.

For `O=C(CO)[C@H](O)[C@H](O)COP(=O)(O)O` [ribulose-5-phosphate], which Km ([9]; read-out: Kms) is on record?
The Km was 5970 µM.

What about the Km ([8]; read-out: Kms) of the same molecule?
The Km was 2470 µM.

Which results are given for `O=C(CO)[C@@H](O)[C@H](O)COP(=O)(O)O` [xylulose-5-phosphate]?
Km [10]: 6400 µM; Km ([2]; read-out: Kmb): 670 µM; Km ([9]; read-out: Kmp): 7700 µM
